Data reported in patent US12492188B2, “1H-benzo[D]imidazole derivatives as TLR9 inhibitors for the treatment of fibrosis” (BRISTOL-MYERS SQUIBB COMPANY, priority 2020, dated 2025).
Read-outs that look alike come from different tables or passages of the source.

Target: T1, human TLR9 (Homo sapiens, UniProt Q9NR96)
T1 construct: host or cells: HEK-Blue cells (HEK293-derived reporter line)
T1 sequence (Q9NR96 26-1032): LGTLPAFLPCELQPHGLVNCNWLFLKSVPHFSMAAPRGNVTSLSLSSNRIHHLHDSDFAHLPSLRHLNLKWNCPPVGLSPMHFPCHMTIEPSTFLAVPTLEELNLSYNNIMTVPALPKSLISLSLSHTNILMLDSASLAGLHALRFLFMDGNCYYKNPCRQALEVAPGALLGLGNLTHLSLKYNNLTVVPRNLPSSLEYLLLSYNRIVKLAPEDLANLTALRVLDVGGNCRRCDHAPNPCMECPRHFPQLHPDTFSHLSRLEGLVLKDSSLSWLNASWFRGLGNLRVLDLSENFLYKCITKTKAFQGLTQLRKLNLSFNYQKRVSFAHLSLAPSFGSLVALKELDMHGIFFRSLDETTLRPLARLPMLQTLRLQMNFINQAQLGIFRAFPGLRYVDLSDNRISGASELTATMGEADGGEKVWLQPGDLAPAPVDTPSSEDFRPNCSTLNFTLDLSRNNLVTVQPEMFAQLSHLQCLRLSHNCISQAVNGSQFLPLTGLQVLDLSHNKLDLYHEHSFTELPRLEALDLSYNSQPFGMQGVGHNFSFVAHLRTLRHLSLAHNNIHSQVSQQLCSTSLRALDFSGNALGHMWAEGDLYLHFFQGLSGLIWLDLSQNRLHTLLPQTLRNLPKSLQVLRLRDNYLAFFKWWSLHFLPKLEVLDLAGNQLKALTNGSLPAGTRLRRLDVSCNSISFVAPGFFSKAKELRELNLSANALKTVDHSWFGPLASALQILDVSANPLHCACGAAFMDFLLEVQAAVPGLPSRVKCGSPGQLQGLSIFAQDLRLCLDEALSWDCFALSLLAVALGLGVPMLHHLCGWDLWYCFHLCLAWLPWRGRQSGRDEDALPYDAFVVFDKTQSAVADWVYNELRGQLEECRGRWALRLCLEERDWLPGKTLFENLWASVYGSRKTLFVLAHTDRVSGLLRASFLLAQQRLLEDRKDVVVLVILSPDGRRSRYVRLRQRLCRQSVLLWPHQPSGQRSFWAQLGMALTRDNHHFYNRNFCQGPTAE
Experiment: TLR9 inhibition reporter assay (HEK-Blue cells, secreted embryonic alkaline phosphatase reporter)
Assay type: cell-based
Description: TLR7/8/9 Inhibition Reporter Assays
HEK-Blue™-cells (Invivogen) overexpressing human TLR7, TLR8 or TLR9 receptors were used for screening inhibitors of these receptors using an inducible SLAP (secreted embryonic alkaline phosphatase) reporter gene under the control of the […] minimal promoter fused to five NF-κB and AP-1-binding sites. Briefly, cells are seeded into Greiner 384 well plates (15000 cells per well for TLR7, 20,000 for TLR8 and 25,000 for TLR9) and then treated with test compounds in DMSO to yield a final dose response concentration range of 0.05 nM-50 μM. After a 30 minute compound pre-treatment at room temperature, the cells are then stimulated with a TLR7 ligand (gardiquimod at a final concentration of 7.5 μM), TLR8 ligand (R848 at a final concentration of 15.9 μM) or TLR9 ligand (ODN2006 at a final concentration of 5 nM) to activate NF-κB and AP-1 which induce the production of SLAP. After a 22 hour incubation at 37° C., […], SLAP levels are determined with the addition of HEK-Blue™ Detection reagent (Invivogen), a cell culture medium that allows for detection of SLAP, according to manufacturer's specifications. The percent inhibition is determined as the […] in the HEK-Blue signal present in wells treated with agonist plus DMSO alone compared to wells treated with a known inhibitor.

[1] = HEK-Blue cells overexpressing human TLR9, stimulated with ODN2006 5 nM, 22 hour incubation, reporter readout
[2] = HEK-Blue cells overexpressing human TLR9, stimulated with ODN2006 5 nM, read-out: TLR 9 IC50

Compound `Cc1cc(C2CCN(C3CCN(CC(C)C)CC3)CC2)cc2[nH]c(-c3cccc(OC(F)F)c3)nc12` [Example 76, 2-(3-(difluoromethoxy)phenyl)-6-(1′-isobutyl-[1,4′-bipiperidin]-4-yl)-4-methyl-1H-benzo[d]imidazole] has an IC50 [1] of 260 nM and an IC50 [2] of 257 nM.

With `Cc1cc(C2CCN(C3CCN(CC(C)C)CC3)CC2)cc2[nH]c(-c3cccc4ncsc34)nc12` [Example 77, 7-(6-(1′-isobutyl-[1,4′-bipiperidin]-4-yl)-4-methyl-1H-benzo[d]imidazol-2-yl)benzo[d]thiazole] the IC50 [1] was 31 nM and the IC50 [2] was 31 nM.

`Cc1cc(C2CCN(C3CCN(CC(C)C)CC3)CC2)cc2[nH]c(-c3ccc(OC(F)F)cc3)nc12` [Example 78, 2-(4-(difluoromethoxy)phenyl)-6-(1′-isobutyl-[1,4′-bipiperidin]-4-yl)-4-methyl-1H-benzo[d]imidazole] gave an IC50 [1] of 270 nM and an IC50 [2] of 267 nM.

Compound `Cc1cc(C2CCN(C3CCN(CC(C)C)CC3)CC2)cc2[nH]c(-c3nccs3)nc12` [Example 79, 2-(6-(1′-isobutyl-[1,4′-bipiperidin]-4-yl)-4-methyl-1H-benzo[d]imidazol-2-yl)thiazole] has an IC50 [1] of 110 nM and an IC50 [2] of 111 nM.

`Cc1cc(C2CCN(C3CCN(CC(C)C)CC3)CC2)cc2[nH]c(-c3ccccc3OC(F)(F)F)nc12` [Example 80, 6-(1′-isobutyl-[1,4′-bipiperidin]-4-yl)-4-methyl-2-(2-(trifluoromethoxy)phenyl)-1H-benzo[d]imidazole tris(2,2,2-trifluoroacetate)] showed an IC50 [1] of 360 nM and an IC50 [2] of 358 nM.

Work on `Cc1cc(C2CCN(C3CCN(CC(C)C)CC3)CC2)cc2[nH]c(-c3cnc4[nH]ccc4c3)nc12` [Example 81, 6-(1′-isobutyl-[1,4′-bipiperidin]-4-yl)-4-methyl-2-(1H-pyrrolo[2,3-b]pyridin-5-yl)-1H-benzo[d]imidazole] yielded an IC50 [1] of 49 nM and an IC50 [2] of 49 nM.

Work on `Cc1cc(C2CCN(C3CCN(CC(C)C)CC3)CC2)cc2[nH]c(-c3cccc4cccnc34)nc12` [Example 82, 8-(6-(1′-isobutyl-[1,4′-bipiperidin]-4-yl)-4-methyl-1H-benzo[d]imidazol-2-yl)quinoline] yielded an IC50 [1] of 32 nM and an IC50 [2] of 32 nM.

`COc1ccc(-c2nc3c(F)cc(C4CCN(C5CCN(C(C)C)CC5)CC4)cc3[nH]2)cc1OC` [Example 83, 2-(3,4-dimethoxyphenyl)-4-fluoro-6-(1′-isopropyl-[1,4′-bipiperidin]-4-yl)-1H-benzo[d]imidazole] showed an IC50 [1] of 210 nM.

`Cc1c(C2CCN(C3CCN(C(C)C)CC3)CC2)ccc2nc(-c3ccc(S(C)(=O)=O)cc3)n(C)c12` [Example 119, 6-(1′-isopropyl-[1,4′-bipiperidin]-4-yl)-1,7-dimethyl-2-(4-(methylsulfonyl)phenyl)-1H-benzo[d]imidazole] was tested, and the IC50 [1] was 1100 nM and the IC50 [2] was 1090 nM.

`Cc1cc2nc(-c3ccc(S(C)(=O)=O)cc3)n(C)c2cc1C1CCN(C2CCN(C(C)C)CC2)CC1` [Example 120, 6-(1′-isopropyl-[1,4′-bipiperidin]-4-yl)-1,5-dimethyl-2-(4-(methylsulfonyl)phenyl)-1H-benzo[d]imidazole] showed an IC50 [1] of 180 nM and an IC50 [2] of 178 nM.

`COc1ccc(-c2nc3c(F)cc(C4CCN(C5CCN(CC(C)C)CC5)CC4)cc3[nH]2)cc1OC` [Example 127, 2-(3,4-dimethoxyphenyl)-4-fluoro-6-(1′-isobutyl-[1,4′-bipiperidin]-4-yl)-1H-benzo[d]imidazole] showed an IC50 of 31 nM and an IC50 [2] of 31 nM.

`COc1ccc(-c2nc3c(F)cc(C4CCN(C5CCN(C6CC6)CC5)CC4)cc3[nH]2)cc1OC` [Example 128, 6-(1′-cyclopropyl-[1,4′-bipiperidin]-4-yl)-2-(3,4-dimethoxyphenyl)-4-fluoro-1H-benzo[d]imidazole] was tested, and the IC50 was 270 nM and the IC50 [2] was 268 nM.

With `COc1ccc(-c2nc3cc(F)c(C4CCN(C5CCN(C(C)C)CC5)CC4)cc3[nH]2)cc1OC` [Example 129, 2-(3,4-dimethoxyphenyl)-5-fluoro-6-(1′-isopropyl-[1,4′-bipiperidin]-4-yl)-1H-benzo[d]imidazole] the IC50 was 190 nM and the IC50 [2] was 185 nM.

Work on `COc1ccc(-c2nc3cc(F)c(C4CCN(C5CCN(CC(C)C)CC5)CC4)cc3[nH]2)cc1OC` [Example 130, 2-(3,4-dimethoxyphenyl)-5-fluoro-6-(1′-isobutyl-[1,4′-bipiperidin]-4-yl)-1H-benzo[d]imidazole] yielded an IC50 of 22 nM and an IC50 [2] of 22 nM.

With `COc1ccc(-c2nc3cc(F)c(C4CCN(C5CCN(C6CC6)CC5)CC4)cc3[nH]2)cc1OC` [Example 131, 6-(1′-cyclopropyl-[1,4′-bipiperidin]-4-yl)-2-(3,4-dimethoxyphenyl)-5-fluoro-1H-benzo[d]imidazole] the IC50 was 59 nM and the IC50 [2] was 59 nM.

Work on `COc1ccc(-c2nc3ccc(C4CCN(C5CCN(C(C)C)CC5)CC4)c(F)c3[nH]2)cc1OC` [Example 132, 2-(3,4-dimethoxyphenyl)-7-fluoro-6-(1′-isopropyl-[1,4′-bipiperidin]-4-yl)-1H-benzo[d]imidazole] yielded an IC50 of 200 nM and an IC50 [2] of 202 nM.

Compound `COc1ccc(-c2nc3ccc(C4CCN(C5CCN(CC(C)C)CC5)CC4)c(F)c3[nH]2)cc1OC` [Example 133, 2-(3,4-dimethoxyphenyl)-7-fluoro-6-(1′-isobutyl-[1,4′-bipiperidin]-4-yl)-1H-benzo[d]imidazole] has an IC50 of 2200 nM and an IC50 [2] of 2200 nM.

For `Cc1cc(C2CCN(C3CCCN(C(C)C)CC3)CC2)cc2c1nc(-c1ccc(S(C)(=O)=O)cc1)n2C` (stereo not drawn) [Example 134, 6-(1-(1-isopropylazepan-4-yl)piperidin-4-yl)-1,4-dimethyl-2-(4-(methylsulfonyl)phenyl)-1H-benzo[d]imidazole], the IC50 was 21 nM and the IC50 [2] was 20 nM.

For `Cc1cc(C2CCN(C3CCCN(C4CCC4)CC3)CC2)cc2c1nc(-c1ccc(S(C)(=O)=O)cc1)n2C` (stereo not drawn) [Example 135, 6-(1-(1-cyclobutylazepan-4-yl)piperidin-4-yl)-1,4-dimethyl-2-(4-(methylsulfonyl)phenyl)-1H-benzo[d]imidazole], the IC50 was 23 nM and the IC50 [2] was 23 nM.

Compound `Cc1cc(C2CCN(C3CCCN(CC(C)C)CC3)CC2)cc2c1nc(-c1ccc(S(C)(=O)=O)cc1)n2C` (stereo not drawn) [Example 136, 6-(1-(1-isobutylazepan-4-yl)piperidin-4-yl)-1,4-dimethyl-2-(4-(methylsulfonyl)phenyl)-1H-benzo[d]imidazole] has an IC50 of 140 nM and an IC50 [2] of 136 nM.

`Cc1cc(C2CCN(C3CCCN(CC4CC4)CC3)CC2)cc2c1nc(-c1ccc(S(C)(=O)=O)cc1)n2C` (stereo not drawn) [Example 137, 6-(1-(1-(cyclopropylmethyl)azepan-4-yl)piperidin-4-yl)-1,4-dimethyl-2-(4-(methylsulfonyl)phenyl)-1H-benzo[d]imidazole] gave an IC50 of 19 nM and an IC50 [2] of 19 nM.

In the case of `Cc1cc(C2CCN(C3CCCN(CC4CCC4)CC3)CC2)cc2c1nc(-c1ccc(S(C)(=O)=O)cc1)n2C` (stereo not drawn) [Example 138, 6-(1-(1-(cyclobutylmethyl)azepan-4-yl)piperidin-4-yl)-1,4-dimethyl-2-(4-(methylsulfonyl)phenyl)-1H-benzo[d]imidazole], the IC50 is reported as 62 nM and the IC50 [2] is reported as 62 nM.

`Cc1cc(C2CCN(C3CC4(C3)CN(C(C)C)C4)CC2)cc2c1nc(-c1ccc(S(C)(=O)=O)cc1)n2C` [Example 139, 6-(1-(2-isopropyl-2-azaspiro[3.3]heptan-6-yl)piperidin-4-yl)-1,4-dimethyl-2-(4-(methylsulfonyl)phenyl)-1H-benzo[d]imidazole] was tested, and the IC50 was 210 nM and the IC50 [2] was 211 nM.
